From ChEMBL document CHEMBL4831523, “Taichunins E-T, Isopimarane Diterpenes and a 20-nor-Isopimarane, from Aspergillus taichungensis (IBT 19404): Structures and Inhibitory Effects on RANKL-Induced Formation of Multinuclear Osteoclasts” (J Nat Prod, 2021) come the findings set out here.

The inhibition is the percentage by which the read-out fell short of the control. The IC50 is the concentration needed to halve the response being measured.

Data set [1] relates to RAW264.7. As to the kind of experiment: Inhibition of RANKL-induced osteoclastogenesis in mouse RAW264.7 cells assessed as reduction in number of TRAP-positive multinuclear cells at 5 uM measured after 4 days by TRAP staining based assay. The class given is functional, cell-based. The note with it: time 4.0 day.
The test system of data set [2] is RAW264.7. As to the kind of experiment: Cytotoxicity against RANKL-treated mouse RAW264.7 cells assessed as effect on cell viability at 50 uM measured after 4 days by MTT assay. It counts as cell-based. The following applies: raw264.7, 96 h, time 4 day. On the technique in general: Tetrazolium assays rely on reduction of a dye to a coloured formazan, in cell work by metabolically active cells.

For data set [3], the system named is RAW264.7. Put plainly: Inhibition of RANKL-induced osteoclastogenesis in mouse RAW264.7 cells assessed as reduction in TRAP activity at 5 uM measured after 4 days by pNPP based assay. The class given is functional, cell-based. The following applies: time 4.0 day.
Data set [4] deals with RAW264.7. Put plainly: Inhibition of RANKL-induced osteoclastogenesis in mouse RAW264.7 cells assessed as reduction in TRAP activity measured after 4 days by pNPP based assay. It counts as functional, cell-based. The following applies: dose 0.2-1 µM, time 4.0 day.
The subject of data set [5] is RAW264.7. Put plainly: Inhibition of RANKL-induced osteoclastogenesis in mouse RAW264.7 cells assessed as reduction in number of TRAP-positive multinuclear cells measured after 4 days by TRAP staining based assay. It counts as functional, cell-based. The following applies: for inhibition: time 4.0 day.
Data set [6] concerns RAW264.7. Put plainly: Inhibition of RANKL-induced osteoclastogenesis in mouse RAW264.7 cells assessed as reduction in Nfatc1 mRNA expression at 30 uM measured after 24 hrs by qRT-PCR method. The class given is functional.
Data set [7] concerns RAW264.7. Put plainly: Inhibition of RANKL-induced osteoclastogenesis in mouse RAW264.7 cells assessed as reduction in number of TRAP-positive multinuclear cells at 0.2 uM measured after 4 days by TRAP staining based assay. It counts as functional. The note with it: RAW264.7, 96 h, time 4 day.

Active and inactive are the calls of the source. No cut-off for these calls is given here.

Consider `C=C[C@]1(C)C=C2[C@H]3OC(=O)[C@@]4(CCCC(C)(C)[C@@H]4[C@H]3O)[C@H]2CC1`, for which the inhibition result with RAW264.7 [1] and in the data set with RAW264.7 [3] was “Active” each time. The Activity entry in the data set with RAW264.7 [2] is “Non-Toxic”. Also, the inhibition entry in the data set with RAW264.7 [4] and in the data set with RAW264.7 [5] was “Dose-Dependent Effect” in each case.
Turning to `C=C[C@]1(C)C=C2[C@@H](O)[C@@]3(O)OC(=O)[C@@]4(CCCC(C)(C)[C@H]34)[C@@]2(O)CC1` [SPHAEROPSIDIN B], the Activity result in the data set with RAW264.7 [2] is “Non-Toxic”. Also, the inhibition at 30 µM in the data set on RAW264.7 [6] was found to be 63%. Further, the IC50 with RAW264.7 [5] (RAW264.7, 96 h) is 10.6 µM.
With `C=C[C@@]1(C)CC[C@H]2C(=C[C@H](O)[C@H]3C(C)(C)CC[C@@H](O)[C@]23C)[C@H]1O`, the Activity entry in the data set with RAW264.7 [2] is reported as “Non-Toxic”.
For `C=C[C@]1(C)C=C2[C@H]3OC(=O)[C@@]4(CCCC(C)(C)[C@@H]4[C@H]3O)[C@@]2(O)CC1`, the Activity result with RAW264.7 [2] is recorded as “Non-Toxic”.
Same read-out and setting: in the case of `C=C[C@]1(C)C=C2[C@H](O)C[C@H]3C(C)(C)CC[C@@H](O)[C@]3(C)[C@H]2CC1` it was “Non-Toxic”; in that of `C=C[C@@]1(C)C[C@@H](O)[C@H]2C(=C[C@H](O)[C@H]3C(C)(C)CCC[C@]23C)[C@H]1O`, “Non-Toxic”; in that of `C=C[C@]1(C)C=C2[C@@H](O)C[C@H]3C(C)(C)CCC[C@]3(C(=O)O)[C@@]2(O)[C@H](O)C1`, “Non-Toxic”.
For `C=C[C@]1(C)C=C2[C@@H](O)C(=O)[C@H]3C(C)(C)CCC[C@]3(C(=O)O[C@@H]3O[C@H](CO)[C@@H](O)[C@H](O)[C@H]3O)[C@H]2CC1`, the inhibition result in the data set on RAW264.7 [1] and in the data set with RAW264.7 [3] was “Active” in each case. Besides, in the data set on RAW264.7 [2], the Activity entry is on record as “Non-Toxic”. The inhibition entry in the data set on RAW264.7 [4] and in the data set on RAW264.7 [5] was “Dose-Dependent Effect” in each case.
On to `C=C[C@@]1(C)CC[C@H]2[C@H]([C@H]1O)[C@@H](O)C[C@H]1C(C)(C)CCC[C@]21C(=O)O`, for which the Activity result in the data set with RAW264.7 [2] is reported as “Non-Toxic”.
Still for that read-out and setting: in the case of `C=C[C@]1(C)C=C2C(=O)C[C@H]3C(C)(C)CCC[C@]3(C(=O)O)[C@@]2(O)CC1` [SPHAEROPSIDIN C] it was “Non-Toxic”; in that of `C=C[C@]1(C)C=C2[C@H]3OC(OC)[C@@]4([C@H](O)CCC(C)(C)[C@@H]4[C@H]3O)[C@H]2CC1` (stereo not given in full), “Non-Toxic”; in that of `C=C[C@@]1(C)CCc2c3c(c(O)c(OS(=O)(=O)O)c2[C@H]1O)C(C)(C)CCC3`, “Non-Toxic”.
Still for that read-out and setting: the value for `C=C[C@@]1(C)CC[C@]2(O)[C@@]34CCCC(C)(C)C3=C(O)C(=O)[C@@]2(OC4=O)[C@H]1O` was “Non-Toxic”; that for `C=C[C@]1(C)C=C2C(=O)[C@@H](O)[C@H]3C(C)(C)CCC[C@]3(C(=O)O[C@@H]3O[C@H](CO)[C@@H](O)[C@H](O)[C@H]3O)[C@H]2CC1` was “Non-Toxic”; that for `C=C[C@]1(C)C=C2C(=O)C(=O)[C@H]3C(C)(C)CCC[C@]3(C(=O)O)[C@@]2(O)CC1` was “Non-Toxic”.
As to `C=C[C@]1(C)C=C2[C@@H](O)C[C@H]3C(C)(C)CCC[C@]3(C(=O)O)[C@H]2CC1`, the Activity entry in the data set with RAW264.7 [2] is reported as “Non-Toxic”.
For the compound `C=C[C@]1(C)C=C2[C@H]([C@@H](O)C1)[C@@]1(C(=O)O)CCCC(C)(C)[C@@H]1C[C@@H]2O`, the inhibition result with RAW264.7 [1] and in the data set on RAW264.7 [3] was “Active” throughout. Further, in the data set on RAW264.7 [2], the Activity entry is on record as “Non-Toxic”. Moreover, the inhibition result in the data set on RAW264.7 [4] and in the data set on RAW264.7 [5] was “Dose-Dependent Effect” throughout. The inhibition at 0.2 µM in the data set with RAW264.7 [7] was found to be 92%.
`C=C[C@@]1(C)C[C@@H](O)[C@@H]2[C@@]34CCCC(C)(C)[C@@H]3[C@H](O)C(=O)[C@@]2(OC4=O)[C@H]1O`: the Activity entry in the data set on RAW264.7 [2] is “Non-Toxic”.
Regarding `C=C[C@]1(C)C=C2C(=O)C[C@H]3C(C)(C)CC[C@@H](O)[C@]3(C(=O)O)[C@H]2CC1`, the Activity result in the data set with RAW264.7 [2] is “Non-Toxic”.
Same read-out and setting: in the case of `C=C[C@@]1(C)CC(=O)C2=C([C@H]1O)[C@@]1(O)OC[C@@]23CCCC(C)(C)[C@@H]3[C@H]1O` it was “Non-Toxic”.
